The values that follow come from US7439343B2, “Aminoglycoside-polyamine displacers and methods of use in displacement chromatography” (Rensselaer Polytechnic Institute, priority 2005, dated 2008).

Molecules are shown by their SMILES.

Experiment [1] addresses horse cytochrome-C on Source 15S cation exchange resin. The experiment in a line: Batch displacement assay, cytochrome-C on Source 15S. The class given is binding. Particulars: input displacer concentration displacing 50% of bound protein; 50 mM phosphate, pH 6.0. An excerpt: (§1) A modified batch displacement assay was used to investigate displacer efficacy of the carbohydrate derivatives over a wide range of concentrations. The carbohydrate derivatives from hereon will be referred to as the displacer candidates unless otherwise specified. Different input concentrations of the displacer candidates were employed to determine the DC50 value, which is the input displacer concentration required to displace fifty percent of the initially bound protein. The lower the DC50 value the more efficacious is the displacer candidate.
Column 201 is the displacer candidate evaluated. Column 202 is DC50 values of horse cytochrome-C on HP Sepharose SP. Column 203 is the DC50 values of horse cytochrome-C on Source 15S cation exchange resin. The above approach was employed to determine the DC50 values of the displacer candidates for the displacement of horse cytochrome-C on HP Sepharose SP and Source 15S cation exchange resins at pH 6.0.
The influence of the stationary phase on displacer affinity was investigated using a second strong cation exchange resin, Source 15S.
(§2) The bulk stationary phase (HP Sepharose SP or Source 15S) was first washed once with de-ionized water and then three times with the buffer, (50 mM phosphate, pH 6.0) and allowed to equilibrate for 2 hours. After gravity-settling of the stationary phase, the supernatant was removed and 3.0 mL of the remaining stationary phase slurry was equilibrated with 36 ml containing 3 mg/ml of the protein (horse heart cytochrome-C or chicken egg lysozyme) in 50 mM phosphate buffer, pH 6.0, at 20° C.
(§3) The protein was equilibrated with the resin for five hours in order to attain complete equilibration during which, the stationary phase was allowed to gravity-settle. Upon settling, the supernatant was removed and the protein content in the supernatant was determined using absorbance detection at 280 or 405 nm using a plate reader. The mass of the protein adsorbed on the stationary phase was determined by mass balance.
(§4) For the screening experiments, 300 μL of different initial concentrations (ranging from 0.3 to 5 mM) of a displacer solution was added to 25 μL aliquots of the stationary phase slurry with bound protein. (note: a different displacer candidate and concentration were employed for each vial to enable parallel screening). The system was equilibrated for 5 h. After equilibrium was achieved, the supernatant was removed and the protein content was determined by absorbance detection at 280 or 405 nm using a plate reader.
(§5) The percent protein displaced, was calculated for each aliquot based on the protein mass balance and the data was plotted as a function of the initial displacer concentration. The resulting plots were then employed to determine the initial displacer concentration required to displace fifty percent of the adsorbed protein (i.e. the DC50).

The target of experiment [2] is horse cytochrome-C on HP Sepharose SP. Briefly: Batch displacement assay, cytochrome-C on HP Sepharose SP. Format: binding. Particulars: input displacer concentration displacing 50% of bound protein; 50 mM phosphate, pH 6.0.
Excerpt: as §1
Table 1 is of displacer candidates and their respective DC50 values of horse cytochrome-C on HP Sepharose SP and Source 15S cation exchange resins in accordance with the present invention. Column 201 is the displacer candidate evaluated. Column 202 is DC50 values of horse cytochrome-C on HP Sepharose SP. Column 203 is the DC50 values of horse cytochrome-C on Source 15S cation exchange resin. The above approach was employed to determine the DC50 values of the displacer candidates for the displacement of horse cytochrome-C on HP Sepharose SP and Source 15S cation exchange resins at pH 6.0.
as §2, §3, §4, §5

Experiment [3] relates to chicken-egg lysozyme adsorbed on HP Sepharose SP. Briefly: Batch displacement assay, lysozyme on HP Sepharose SP. Format: binding. Particulars: displacer concentration 2.5 mM. The procedure: FIG. 2 depicts a graph comparing the % lysozyme and % cytochrome-C displaced on HP Sepharose SP in accordance with the present invention. The Y axis is % protein displaced. The X axi is the displacer candidate evaluated. The displacer candidate concentration is 2.5 mM in an embodiment of the present invention. In order to evaluate the displacer candidates with another protein, experiments were carried out with chicken-egg lysozyme adsorbed on HP Sepharose SP. Referring to FIG. 2, a comparison of the percent protein displaced for both lysozyme and cytochrome-C at displacer concentrations of 2.5 mM is shown. The data is arranged in increasing order of percent lysozyme displaced. […] Upon settling, the supernatant was removed and the protein content in the supernatant was determined using absorbance detection at 280 or 405 nm using a plate reader. The mass of the protein adsorbed on the stationary phase was determined by mass balance. […] After equilibrium was achieved, the supernatant was removed and the protein content was determined by absorbance detection at 280 or 405 nm using a plate reader. The percent protein displaced, was calculated for each aliquot based on the protein mass balance and the data was plotted as a function of the initial displacer concentration. […]

The test system of experiment [4] is DNA. Briefly: Ethidium bromide displacement assay (DNA binding). Particulars: 96-well format. Set-up: species or system calf. The text has this: A method for condensing DNA comprising combining the DNA with at least one of the aforementioned derivatives of a carbohydrate compound wherein the DNA is bound to the carbohydrate compound is presented in accordance with the present invention. FIG. 3 depicts a graph of DNA binding efficacy of the displacer candidates in an embodiment of the present invention. The Y axis is % fluorescence decreased and the X axis is the carbohydrate derivative evaluated.
Referring to FIG. 3, an ethidium bromide displacement assay was employed to evaluate the DNA-binding affinity of carbohydrate derivatives in a 96-well format. Using this screen, the percent fluorescence decreased was used as a parameter to rank the DNA-binding efficacy of the various compounds.

For the compound `NCCCNCCCCNCCCNC(=O)NC1C(O)OC(COC(=O)NCCCNCCCCNCCCN)C(O)C1O` (stereo not drawn) [4a], the DC50 was 900 µM in experiment [1] and 2800 µM in experiment [2]. Moreover, the “DC50-Cytochrome C on Source 15S” value in experiment [1] was “sub-millimolar”.

For the compound `COC1OC(COC(=O)NCCCNCCCCNCCCN)C(O)C(O)C1NC(=O)NCCCNCCCCNCCCN` (stereo not drawn) [4b], in experiment [1], the DC50 amounted to 800 µM and the “DC50-Cytochrome C on Source 15S” value is “sub-millimolar”. Also, the DC50 in experiment [2] stood at 3600 µM.

On to `NCCCNCCCCNCCCNC(=O)NC1C(OCc2ccccc2)OC(COC(=O)NCCCNCCCCNCCCN)C(O)C1O` (stereo not drawn) [4c], for which, in experiment [1], the DC50 is 800 µM and the “DC50-Cytochrome C on Source 15S” value is “sub-millimolar”. Further, the DC50 in experiment [2] came to 1300 µM.

Consider `NCCCNCCCCNCCCNC(=O)NC1C(OCc2ccccc2)OC(COC(=O)NCCCNCCCCNCCCN)C(O)C1O` (stereo not drawn) [4d], for which the DC50 in experiment [1] came out at 800 µM; in experiment [2] it was 2800 ± 200 µM. Moreover, in experiment [1], the “DC50-Cytochrome C on Source 15S” value was “sub-millimolar”.

On to `NCCNC(=O)NCC1OC(OC2C(CO)OC(OC3C(O)C(NC(=O)NCCN)CC(NC(=O)NCCN)C3OC3OC(CNC(=O)NCCN)C(O)C(O)C3NC(=O)NCCN)C2O)C(NC(=O)NCCN)C(O)C1O` (stereo not drawn) [14a], for which the DC50 in experiment [1] was 1300 ± 90 µM. Also, in experiment [2], the DC50 was 1600 µM and the “DC50-Cytochrome C on HP Sepharose SP” value is “highest affinity among the neomycin derivatives”.

Take `NCCNC(=O)NCC1OC(OC2C(NC(=O)NCCN)CC(NC(=O)NCCN)C(O)C2O)C(NC(=O)NCCN)C(O)C1O` (stereo not drawn) [17a]: the DC50 amounted to 2300 ± 40 µM in experiment [1] and 2100 µM in experiment [2].

Turning to `NCCCNCCCCNCCCNC(=O)NCC1OC(OC2C(NC(=O)NCCCNCCCCNCCCN)CC(NC(=O)NCCCNCCCCNCCCN)C(O)C2O)C(NC(=O)NCCCNCCCCNCCCN)C(O)C1O` (stereo not drawn) [17b, neamine tetraspermine], the “percent protein displaced (lysozyme)” value in experiment [3] stood at 52.8%. In experiment [1], the DC50 turned out to be 600 µM. Moreover, in experiment [2], the DC50 was determined as 700 µM and the “DC50-Cytochrome C on HP Sepharose SP” value was “sub-millimolar”.

Regarding `COC1OC(CO)C(OC2OC(CNC(=O)NCCNCCN)C(O)C(O)C2NC(=O)NCCNCCN)C1O` (stereo not drawn) [20a], the DC50 in experiment [1] came to 4800 ± 30 µM; in experiment [2], 9400 ± 2650 µM.

As to `COC1OC(CO)C(OC2OC(CNC(=O)NCCCNCCCCNCCCN)C(O)C(O)C2NC(=O)NCCCNCCCCNCCCN)C1O` (stereo not drawn) [20b], in experiment [1], the DC50 turned out to be 800 ± 40 µM and the “DC50-Cytochrome C on Source 15S” value is “sub-millimolar”. Besides, the DC50 in experiment [2] was 1100 µM.

Take `NCCNC(=O)NCC1OC(OC2C(NC(=O)NCCN)CC(NC(=O)NCCN)C(OC3OC(CO)C(O)C(NC(=O)NCCN)C3O)C2O)C(O)C(O)C1O` (stereo not drawn) [23a]: the DC50 in experiment [1] amounted to 1700 ± 20 µM; in experiment [2], 2000 ± 150 µM.

In experiment [1], `NCCCNCCCCNCCCNC(=O)NCC1OC(OC2C(NC(=O)NCCCNCCCCNCCCN)CC(NC(=O)NCCCNCCCCNCCCN)C(OC3OC(CO)C(O)C(NC(=O)NCCCNCCCCNCCCN)C3O)C2O)C(O)C(O)C1O` (stereo not drawn) [23c, kanamycin A tetraspermine] gave a DC50 of 900 µM. For the same compound, in experiment [2], the DC50 amounted to 1000 µM and the “DC50-Cytochrome C on HP Sepharose SP” value is “sub-millimolar”.

Turning to `NC[C@H]1O[C@H](O[C@H]2[C@H](O)[C@@H](O[C@H]3O[C@H](CO)[C@@H](O)[C@H](N)[C@H]3O)[C@H](N)C[C@@H]2N)[C@H](N)[C@@H](O)[C@@H]1O` [Bekanamycin, bekanamycin, reference compound], in experiment [4], the “% fluorescence decreased” value is given as “relatively low efficacies”. In addition, the results for the DC50 in experiment [1] and in experiment [2] were 3100 ± 2290 µM and 6200 ± 370 µM, respectively.

`NCCNCCN` [Diethylenetriamine, diethylenetriamine, reference compound]: the results for the DC50 in experiment [1] and in experiment [2] were 14400 ± 3670 µM and 10800 ± 190 µM, respectively.

As for `NCCN` [Ethylenediamine, ethylenediamine, reference compound], the DC50 in experiment [1] amounted to 17600 ± 2150 µM; in experiment [2], 20200 ± 2670 µM.

Turning to `NC[C@H]1O[C@H](O[C@H]2[C@H](O)[C@@H](O)[C@H](N)C[C@@H]2N)[C@H](N)[C@@H](O)[C@@H]1O` [Neamine, neamine, reference compound], the DC50 in experiment [1] is 4900 ± 1670 µM; in experiment [2] it was 5600 µM.

Consider `NCC1OC(OC2C(CO)OC(OC3C(O)C(N)CC(N)C3OC3OC(CN)C(O)C(O)C3N)C2O)C(N)C(O)C1O` (stereo not drawn) [Neomycin, neomycin, reference compound], for which, in experiment [4], the “% fluorescence decreased” value was “relatively low efficacies”. Besides, the DC50 in experiment [1] came out at 1700 ± 20 µM; in experiment [2], 2800 µM.

On to `NCCCCNCCCN` [Spermidine, spermidine, reference compound], for which the “% fluorescence decreased” value in experiment [4] is reported as “relatively low efficacies”. The DC50 in experiment [1] stood at 5800 ± 440 µM; in experiment [2], 7700 ± 1440 µM.

For the compound `NCCCNCCCCNCCCN` [Spermine, spermine, reference compound], in experiment [4], the “% fluorescence decreased” value is on record as “relatively low efficacies”. Also, the values for the DC50 in experiment [1] and in experiment [2] were 4300 ± 640 µM and 4800 µM, respectively.

For the compound `NCCCNCCCCNCCCNC(=O)OCC1OC(n2cnc3c(N)ncnc32)CC1O` (stereo not drawn) [compound 7], the DC50 in experiment [1] came out at 6200 ± 460 µM; in experiment [2], 11700 ± 100 µM.

`NCCCNCCCCNCCCNC(=O)OC1CC(n2cnc3c(N)ncnc32)OC1CO` (stereo not drawn) [compound 9]: the DC50 in experiment [1] was 12900 ± 1460 µM; in experiment [2] it was 12300 ± 250 µM.

In the case of `NCCCNCCCCNCCCNC(=O)Nc1ncnc2c1ncn2C1CC(OC(=O)NCCCNCCCCNCCCN)C(COC(=O)NCCCNCCCCNCCCN)O1` (stereo not drawn) [compound 11], the DC50 in experiment [1] was found to be 1100 ± 140 µM; in experiment [2], 2300 µM.

On to `NCCNC(=O)NCC1OC(OC2C(NC(=O)NCCN)CC(NC(=O)NCCN)C(OC3OC(CO)C(O)C(NC(=O)NCCN)C3O)C2O)C(N)C(O)C1O` (stereo not drawn) [compound 24], for which the DC50 was 1900 ± 60 µM in experiment [1] and 1900 ± 10 µM in experiment [2].
